# Experimental data from patent US20220304997A1, “REBAMIPIDE FOR USE IN PROPHYLAXIS AND TREATMENT OF CANCER” (SQUARE POWER LTD., priority 2019, published 2022).
# Test system: Male CD-1 mice
# Assay: DSS model combined with PhIP treatment (increased intestinal permeability, colitis and colon tumors)
# Format: in vivo
# Source text: To study the effect of rebamipide on increased intestinal permeability, colonic inflammation and cancer development, a DSS model combined with PhIP treatment was employed. Male CD-1 mice, divided into three groups, designated A to C, were used in the study. […] Subsequently, all animals were given inflammatory insult using 2% dextran sodium sulfate (DSS) in drinking water for 7 days, followed by 2-4 weeks of recovery period, during which mice were given untreated water. This cycle was repeated up to four times to induce increased intestinal permeability leading to severe colitis with loss of body weight and bloody diarrhea. Subsequently, majority of animals developed multiple colon tumors. Treatment with DSS (dextran sulfate sodium) induces increased intestinal permeability in mice by binding to medium-chain-length fatty acids present in the colon leading to development of inflammation and colitis. Besides that, the DSS administration leads to a long-term development of dysplasia and even colon cancer in some of the mice treated. PhIP treatment accelerates this process and further increases the incidence of colonic tumors. Another advantage of including PhIP in the protocol is that it allows reduction of the DSS dose in mice, and decreases the mortality from DSS-associated acute colitis. The carcinogenic process of the DSS/PhIP system has a pathological progression from normal intestinal crypts to the formation of foci harboring aberrant crypts with crypt fission and finally to the emergence of microadenomas. These steps recapitulate the sequence of colorectal cancer formation in humans from increased intestinal permeability and inflammation through dysplasia to carcinoma. Rebamipide treatment started four weeks prior to carcinogen administration and continued throughout the study. Groups A and B received rebamipide 50 mg/kg/day and 350 mg/kg/day, respectively. Rebamipide was applied within the standard daily feed or by gavage if needed. The treatment lasted for 20 weeks. […] [table] The observed parameters were as follows: • Number and size of tumors • Histological evaluation of the tumors • Weight loss • Colitis severity assessment • Gut permeability • Cytokines and related markers (IL-6, IL-10, IL-1b, TNFα, iNOS, IL-23p19, MCP 1, MIP 2, CXCL1) • Cell-cell adhesion proteins (Claudin 1, β catenin) • Expression of target genes
# [1] = PhIP/DSS-treated mice, in comparison to untreated animals
# [2] = groups A and B, rebamipide 50 mg/kg/day and 350 mg/kg/day, 20 weeks, vs untreated control group C, preliminary results
smiles,measurement,setting,value
"O=C(NC(Cc1cc(=O)[nH]c2ccccc12)C(=O)O)c1ccc(Cl)cc1 (stereo not drawn) [rebamipide, 2-[(4-chlorobenzoyl)amino]-3-(2-oxo-1H-quinolin-4-yl)propanoic acid]",intestinal inflammation,[1],suppresses intestinal inflammation
same,onset of the symptoms and markers corresponding to colon cancer,[1],preventing or at least delaying the onset
same,permeability of the gastrointestinal mucosa,[1],decrease in permeability
same,recovery from the DSS treatment,"groups A and B, rebamipide 50 mg/kg/day and 350 mg/kg/day in feed or by gavage, 20 weeks, vs untreated control group C, preliminary results",recovered faster
same,incidence of tumors at the end of the study,[2],lower incidence
same,size of tumors at the end of the study,[2],lower incidence and size of tumors
